In brackets after ≈: the same amount, converted by molar mass. Several values for one entry are separate records, joined by “and”; a condition that tells them apart may be missing. Identical values can stand only once. Entries after “also recorded” stand apart in the source; their conditions may differ.
Experiments:
E. faecalis TyrDC [1] = target: T1, E. faecalis TyrDC (Enterococcus faecalis, UniProt P0DTQ4); assay: Michaelis-Menten kinetics of E. faecalis TyrDC; conditions: for Vmax / kcat: substrate of TyrDC, best-fit ± standard error, n=3
T1 sequence (P0DTQ4 1-620): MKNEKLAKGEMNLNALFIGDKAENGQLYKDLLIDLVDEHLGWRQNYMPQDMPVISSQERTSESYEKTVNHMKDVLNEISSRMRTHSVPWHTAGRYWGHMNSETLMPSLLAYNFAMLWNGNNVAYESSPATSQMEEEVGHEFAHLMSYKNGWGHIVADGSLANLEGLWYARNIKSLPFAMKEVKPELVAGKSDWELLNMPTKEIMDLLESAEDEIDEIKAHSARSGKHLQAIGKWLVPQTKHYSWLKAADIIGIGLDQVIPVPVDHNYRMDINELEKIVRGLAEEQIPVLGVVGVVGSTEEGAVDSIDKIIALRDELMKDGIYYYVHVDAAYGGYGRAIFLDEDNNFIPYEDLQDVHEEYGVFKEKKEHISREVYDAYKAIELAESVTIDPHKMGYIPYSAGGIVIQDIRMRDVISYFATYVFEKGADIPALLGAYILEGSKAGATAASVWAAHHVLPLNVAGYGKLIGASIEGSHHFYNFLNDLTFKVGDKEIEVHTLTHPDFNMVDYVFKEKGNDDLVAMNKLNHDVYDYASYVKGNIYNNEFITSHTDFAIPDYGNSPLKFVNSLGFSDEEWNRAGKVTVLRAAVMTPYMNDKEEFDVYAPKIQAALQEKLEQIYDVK
Protocol: (§1) The enzyme reaction was then initiated by dissolving the preincubated enzyme-PLP mix 1:10 with substrate dissolved in 0.2 M sodium acetate buffer, pH 5.5. […] Aliquots of the enzyme reaction were quenched by diluting 10-fold into ice cold methanol at 20, 40, and 60 seconds after initiation. The quenched reaction was centrifuged to pellet precipitates and 5 μL of the supernatant was analyzed by LC-MS/MS using Method B described above. Rates were calculated as the substrate produced from 20 to 60 seconds and were fit to a standard Michaelis-Menten kinetics curve in Graphpad prism (version 7). All experiments were done in triplicate and were repeated at least twice. Reactions were performed at room temperature.

E. lenta A2 [2] = assay: Effect of tungstate on dopamine dehydroxylation in cultures of E. lenta A2; type: cell-based, Eggerthella lenta; conditions: 48 hours, 0.5 mM dopamine
E. lenta A2 [3] = assay: Anaerobic growth of E. lenta A2 in the presence of tungstate; type: cell-based, Eggerthella lenta; conditions: BHI medium, varying concentrations of tungstate
E. lenta A2 cell lysates = assay: E. lenta A2 lysate assays with tungstate; type: biochemical, Eggerthella lenta; conditions: 500 μM dopamine, 12 hours, room temperature
Protocol: E. lenta A2 was grown either without or with 500 μM dopamine in BHI medium containing 1% (w/v) arginine and 10 mM formate. Cultures were spun down at OD600=0.500 and cell pellets were washed twice with anaerobic, sterile PBS to remove dopamine and any m-tyramine that had accumulated in the culture. Pellets were lysed anaerobically in 50 mM Tris pH 8 followed by addition of 500 μM dopamine (DA) to lysates. Lysates were left at room temperature for 12 hours and were analyzed for m-tyramine production by LC-MS/MS. Peak heights show the relative intensity of each mass and all chromatograms are shown on the same scale.
10 mL turbid 48-hour starter cultures of E. lenta A2 in BHI medium were diluted 1:100 into 20 mL BHI medium containing 1% arginine and 10 mM formate with or without 500 μM dopamine. Cells were pelleted by centrifugation when cultures reached OD600=0.500. Cell pellets were washed twice with PBS and were then re-suspended in 800 μL 50 mM Tris pH 8 containing 4 mg/mL […] protease inhibitor cocktail, followed by anaerobic sonication to lyse the cells. Dopamine was added to crude lysates at a final concentration of 500 μM and the reactions were left for 12 hours at room temperature under anaerobic conditions. […] Supernatant were analyzed by LC-MS/MS to measure dopamine and m-tyramine production using Method A described above. […]

[4] = cited from earlier work
human fecal microbiota = system: human fecal microbiota
Protocol: Fecal slurries from neurologically healthy human donors or Parkinson's patients were prepared as described in the ‘enrichment culturing’ section above. These slurries were diluted to a final volume of 300 μL in 20% glycerol and then aliquoted into individual tubes, flash-frozen in liquid nitrogen and stored at −80° C., allowing for experiments to be repeated with the same fecal sample multiple times without freeze-thawing.

E. faecalis TyrDC [5] = target: T1, E. faecalis TyrDC; assay: Inhibition of L-dopa decarboxylation by purified TyrDC (LC-MS/MS); conditions: for preferential inhibition, AADC vs TyrDC: FIG. 4 panels B and E, in vitro; for IC50: IC50, L-dopa decarboxylation by TyrDC, purified E. faecalis TyrDC, 500 μM L-dopa, pH 5.5, best-fit ± standard error, n=3
E. faecalis MMH594 cells = assay: L-dopa decarboxylation in anaerobic E. faecalis cultures with inhibitor
[6] = Solubility limit noted in the inhibition assays; type: physicochemical
H. sapiens AADC = target: T2, H. sapiens AADC (Homo sapiens, UniProt P20711); assay: Inhibition of L-dopa decarboxylation by purified AADC (LC-MS/MS)
T2 sequence (P20711 1-480): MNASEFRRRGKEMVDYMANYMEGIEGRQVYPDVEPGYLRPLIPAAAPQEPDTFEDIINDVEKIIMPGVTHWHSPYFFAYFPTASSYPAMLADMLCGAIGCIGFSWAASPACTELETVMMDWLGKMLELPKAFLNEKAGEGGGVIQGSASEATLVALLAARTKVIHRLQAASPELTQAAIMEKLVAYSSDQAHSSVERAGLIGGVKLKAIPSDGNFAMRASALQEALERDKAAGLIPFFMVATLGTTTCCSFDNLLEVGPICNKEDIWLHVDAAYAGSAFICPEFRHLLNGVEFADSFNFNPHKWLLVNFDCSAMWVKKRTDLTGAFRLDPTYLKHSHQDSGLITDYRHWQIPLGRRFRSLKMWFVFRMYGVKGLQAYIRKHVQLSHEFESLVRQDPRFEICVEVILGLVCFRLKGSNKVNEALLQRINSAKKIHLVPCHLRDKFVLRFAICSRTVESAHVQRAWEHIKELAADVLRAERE

TyrDC = target: T3, TyrDC (Enterococcus faecalis, UniProt P0DTQ4); assay: Identification of a PLP-inhibitor adduct upon incubation of enzymes with AFMT; type: biochemical; conditions: TyrDC or AADC incubated with AFMT for 1 hour
T3 sequence (P0DTQ4 1-620): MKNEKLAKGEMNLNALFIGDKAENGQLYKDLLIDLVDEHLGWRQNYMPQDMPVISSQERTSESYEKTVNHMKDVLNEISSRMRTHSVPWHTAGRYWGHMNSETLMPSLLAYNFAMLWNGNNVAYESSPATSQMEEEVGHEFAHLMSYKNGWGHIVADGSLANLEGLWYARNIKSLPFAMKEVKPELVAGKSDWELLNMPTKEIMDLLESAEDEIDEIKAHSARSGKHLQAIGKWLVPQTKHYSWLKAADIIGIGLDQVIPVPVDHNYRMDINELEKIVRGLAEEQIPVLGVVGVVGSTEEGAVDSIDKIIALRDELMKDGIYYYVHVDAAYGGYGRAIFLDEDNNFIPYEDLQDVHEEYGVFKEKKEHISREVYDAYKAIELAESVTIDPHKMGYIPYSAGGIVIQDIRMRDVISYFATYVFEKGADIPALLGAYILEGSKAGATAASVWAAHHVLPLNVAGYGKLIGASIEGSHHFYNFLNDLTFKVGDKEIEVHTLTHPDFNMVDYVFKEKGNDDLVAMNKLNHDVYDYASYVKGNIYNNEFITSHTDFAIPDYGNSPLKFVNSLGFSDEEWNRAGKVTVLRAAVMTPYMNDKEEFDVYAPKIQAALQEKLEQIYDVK
Protocol: The same buffers as described above were used for each enzyme. 10 μM AADC or TyrDC was incubated with 200 μM PLP and 50 μM AFMT for one hour at room temperature. The reactions were quenched by boiling at 95° C. for 15 minutes. This mix was diluted 1:20 in LC-MS grade methanol and spun down to pellet precipitates. The supernatant was analyzed by LC-MS using Method E described above. The predicted adduct was identified based on the work described in.

[7] = system: co-cultures of E. faecalis and E. lenta; assay: L-dopa metabolism by co-cultures of E. faecalis and E. lenta with AFMT; conditions: 125 μM AFMT, 1 mM d3-phenyl-L-dopa, 48 hours
Protocol: E. faecalis MMH594 WT or tyrDC mutant or E. lenta A2 or E. lenta DSM2243 were grown anaerobically for 48 hours from single colonies in BHI medium at 37° C. These starter cultures were normalized to an OD600=0.1 by dilution into fresh BHI medium. […] Cultures were grown for 48 hours at 37° C. and harvested by centrifugation.

[8] = Pharmacokinetic experiment in gnotobiotic mice colonized with E. faecalis MMH594; type: in vivo; conditions: L-dopa+carbidopa+AFMT
HeLa cells = assay: MTS/MTT assay for HeLa cell viability in the presence of AFMT; type: cell-based; conditions: two days treatment
Protocol: HeLa cells were seeded in 100 μL growth medium [(DMEM medium supplemented with 10% FBS (2 mL) and 1× Antibiotic-Antimycotic (100× stock, Invitrogen))] and incubated at 37° C. in 5% CO2 incubator for 1 day. Wells containing growth medium only were used as background controls. Cells were treated with various concentrations of AFMT in quadruplicate. Two days post treatment, 20 μL of CellTiter 96® AQueous One Solution Reagent (Promega) was added to each well. The plates were incubated at 37° C. in 5% CO2 incubator for 2 hours followed by absorbance measurement at 490 nm. To calculate relative cell viability, the readings for each compound concentration were subtracted from the background controls and normalized to vehicle controls.
HeLa cells were seeded into 96-well plates at a density of 1×10^5 cells per well in 100 μL of growth medium [(DMEM medium supplemented with 10% FBS (2 mL) and 1× Antibiotic-Antimycotic (100× stock, Invitrogen))] and incubated at 37° C. in a 5% CO2 incubator for 1 day. Wells containing growth medium only were used as background controls. Cells were treated with various concentrations of AFMT in quadruplicate. […] To calculate relative cell viability, the readings for each compound concentration were subtracted from the background controls and normalized to vehicle controls

[9] = substrate: N[C@@H](Cc1ccc(O)c(O)c1)C(=O)O; assay: purified protein, by the assay type; conditions: other: substrate of TyrDC, pH 5.5
[10] = substrate: N[C@@H](Cc1ccc(O)cc1)C(=O)O; assay: purified protein, by the assay type; conditions: other: substrate of TyrDC; best-fit ± standard error, n=3; pH 5.5
Protocol: as §1

[11] = read-out: inhibition of AADC at solubility limit

In the case of `N[C@@H](Cc1ccc(O)cc1)C(=O)O` [Tyrosine, L-tyrosine], the “fold higher catalytic efficiency compared to L-dopa” value (E. faecalis TyrDC [1]; TyrDC) is reported as 5 fold, the Vmax (E. faecalis TyrDC [1]) is reported as 6.363 ± 0.102 µM/s and the kcat (E. faecalis TyrDC [1]) is reported as 63.63 ± 1.02 s⁻¹.

In the case of `[Na+].[Na+].[O]=[W](=[O])([O-])[O-]` [tungstate, Sodium tungstate], the “dopamine dehydroxylation by E. lenta A2 cultures” value (E. lenta A2 [2]) is reported as “inhibits”, the “growth of E. lenta A2” value (E. lenta A2 [3]) is reported as “without affecting growth; also recorded: no obvious dose-dependent growth defect” and the “dopamine dehydroxylation by E. lenta A2 cell lysates” value (E. lenta A2 cell lysates) is reported as “had no effect; also recorded: no dose-dependent effect”.

In the case of `N[C@@H](Cc1ccc(O)c(O)c1)C(=O)O` [L-dopa], the Vmax (E. faecalis TyrDC [1]) is given as 5.553 ± 0.165 ^ μM/s, the kcat (E. faecalis TyrDC [1]) is given as 55.53 ± 2.98 ^ 1/s and the “L-dopa reaching the brain” value ([4]; extensive pre-systemic metabolism in the gut) is given as 1-5%.

For `C[C@@](Cc1ccc(O)c(O)c1)(NN)C(=O)O` [carbidopa], the “kinetics of L-dopa degradation in stool samples” value (human fecal microbiota; 2 mM carbidopa, 1 mM d3-phenyl-L-dopa, 72 hours) was “did not alter”, the “endpoint m-tyramine production in stool samples” value (human fecal microbiota; 2 mM carbidopa, Parkinson's patients and neurologically healthy controls) was “did not alter” and the “fold less active toward TyrDC relative to AADC” value (E. faecalis TyrDC [5]; E. faecalis TyrDC vs H. sapiens AADC) was 200 fold. For the same molecule, the “preferential inhibition, AADC vs TyrDC” value (E. faecalis TyrDC [5]) was “preferentially inhibits human amino acid decarboxylase (AADC) over TyrDC”, the IC50 (E. faecalis TyrDC [5]) was 52 µM and the inhibition at 2000 µM (E. faecalis MMH594 cells; Enterococcus faecalis, MMH594CELLS, read-out: inhibition of L-dopa decarboxylation by E. faecalis cultures, at solubility limit of 2 mM) was about 50%. The “inhibition of L-dopa decarboxylation by E. faecalis cultures” value (E. faecalis MMH594 cells; at solubility limit of 2 mM) was 50% inhibition at, the solubility ([6]; E. faecalis cultures, plasma or biological fluid) was 2000 µM (≈ 452 µg/mL) and the IC50 (H. sapiens AADC) was 0.21 µM. The “m-tyramine production in patients” value ([4]; carbidopa administration, previous findings) was “does not impact”.

For `N[C@@](CF)(Cc1ccc(O)cc1)C(=O)O` [AFMT], the “L-dopa decarboxylation in gut microbiota samples” value (human fecal microbiota; Parkinson's disease patients and neurologically healthy control subjects, 1 mM d3-phenyl-L-dopa, 72 hours) was “completely inhibited”, the “preferential inhibition, AADC vs TyrDC” value (E. faecalis TyrDC [5]) was “preferentially inhibits TyrDC over AADC” and the IC50 (E. faecalis TyrDC [5]) was 4.7 µM and 4.71 µM. The “fold outperforming carbidopa in E. faecalis cultures” value (E. faecalis MMH594 cells; AFMT vs carbidopa) was 1000 fold, the EC50 (E. faecalis MMH594 cells; Enterococcus faecalis, MMH594CELLS, read-out: EC50, L-dopa decarboxylation in E. faecalis cultures, E. faecalis MMH594 cells, 0.5 mM L-dopa, anaerobic) was 1.4 µM and the “covalent PLP adduct formation” value (TyrDC) was “formed a covalent PLP adduct only in the presence of TyrDC”. The “L-dopa decarboxylation by co-cultures of E. faecalis and E. lenta” value [7] was “reduced”, the solubility ([6]; AADC inhibition assay mixture, AADC inhibition assay) was 650 µM (≈ 139 µg/mL) and the inhibition at 650 µM (H. sapiens AADC; [11]) was about 20%. The inhibition at 700 µM (H. sapiens AADC; [11]) was 20%, the “serum L-dopa relative to vehicle controls” value [8] was “higher” and the “toxicity to eukaryotic cells” value (HeLa cells) was “non-toxic”.

B1: E. faecalis TyrDC (Enterococcus faecalis EnGen0310 = MMH594) (protein)
chain: MKNEKLAKGEMNLNALFIGDKAENGQLYKDLLIDLVDEHLGWRQNYMPQDMPVISSQERTSESYEKTVNHMKDVLNEISSRMRTHSVPWHTAGRYWGHMNSETLMPSLLAYNFAMLWNGNNVAYESSPATSQMEEEVGHEFAHLMSYKNGWGHIVADGSLANLEGLWYARNIKSLPFAMKEVKPELVAGKSDWELLNMPTKEIMDLLESAEDEIDEIKAHSARSGKHLQAIGKWLVPQTKHYSWLKAADIIGIGLDQVIPVPVDHNYRMDINELEKIVRGLAEEQIPVLGVVGVVGSTEEGAVDSIDKIIALRDELMKDGIYYYVHVDAAYGGYGRAIFLDEDNNFIPYEDLQDVHEEYGVFKEKKEHISREVYDAYKAIELAESVTIDPHKMGYIPYSAGGIVIQDIRMRDVISYFATYVFEKGADIPALLGAYILEGSKAGATAASVWAAHHVLPLNVAGYGKLIGASIEGSHHFYNFLNDLTFKVGDKEIEVHTLTHPDFNMVDYVFKEKGNDDLVAMNKLNHDVYDYASYVKGNIYNNEFITSHTDFAIPDYGNSPLKFVNSLGFSDEEWNRAGKVTVLRAAVMTPYMNDKEEFDVYAPKIQAALQEKLEQIYDVK
With B1 the Km ([9]; best-fit ± standard error, n=3) was 1475 ± 79.28 ^ μM, the Km [9] was 1.5 mM and the Km [10] was 314.9 ± 15.5 µM.
